How the values were obtained:
PDE3 = target: T1, PDE3 (Homo sapiens, UniProt Q14432); assay: Phosphodiesterase bioassay screening, PDE3 assay; format: biochemical; conditions: Plinabulin concentration 10 μm; n 2; source human platelets; [3H]cAMP+cAMP substrate; 25° C.
T1 construct: The source for the PDE3 and PDE5 assays were human platelets; from tissue; host or cells: human platelets
Procedure: (§1) Plinabulin was tested using Phosphodiesterase assays including PDE3, PDE4, and PDE5 assays. The source for the PDE3 and PDE5 assays were human platelets and for PDE4 assay was human U937 cells. The substrate for all three assays was 1.01 µM [.H]cAMP+cAMP. For all three assays, the pre-incubation time was 15 mins, the incubation time was 20 mins, and the pre-incubation and incubation temperature was 25° C. The quantification method involves quantitation of [^3H]Adenosine, and the significant criteria was set for i 50% of max stimulation or inhibition.

PDE4 = assay: Phosphodiesterase bioassay screening, PDE4 assay; format: biochemical, human
Procedure: as §1

PDE5 = target: T2, PDE5 (Homo sapiens, UniProt O76074); assay: Phosphodiesterase bioassay screening, PDE5 assay; format: biochemical; conditions: Plinabulin concentration 10 μm; n 2; source human platelets; [3H]cAMP+cAMP substrate; 25° C.
T2 construct: The source for the PDE3 and PDE5 assays were human platelets; from tissue; host or cells: human platelets
Procedure: as §1

[1] = Clinical study of docetaxel plus plinabulin versus docetaxel alone: dexamethasone-related treatment emergent adverse events; format: in vivo, patients
Procedure: Patients received either docetaxel plus plinabulin (DN) or docetaxel alone (75 mg/m^2) (D) treatment. Two dosing cohorts were investigated: • 1) 30 mg/m^2 dosing cohort: patients were randomized (1:1) to receive either docetaxel plus plinabulin at 30 mg/m^2 (DN 30 mg/m^2 arm) or docetaxel alone (D arm), • 2) 20 mg/m^2 dosing cohort: patients were randomized (2:1) to receive either docetaxel plus plinabulin at 20 mg/m^2 (DN 20 mg/m^2 arm) or docetaxel (D arm) alone.
Patients received therapy on Day 1 and Day 8 in 3-week cycles. Therapy on Day 1 consisted of 75 mg/m^2 docetaxel administered via intravenous infusion (IV) over 1 hour, followed 2 hours later (from the time the docetaxel infusion began) by placebo (Arm D) or 30 mg/m^2 or 20 mg/m^2 plinabulin (Arm DN) administered via intravenous infusion (IV) over 30 minutes. […]
Treatment Phase: Safety assessments (including a complete physical examination) were performed prior to study drug infusion. […] Additionally, the following were evaluated: CBC with differential/platelets and clinical chemistry were performed up to 72 hours prior to Day 1 of each cycle; an additional assessment occurred in Cycle 1/Day 15; Vital signs (heart rate, respiratory rate, blood pressure and temperature) were taken on the days of infusion immediately before and after each study drug infusion and at 30 and 60 minutes following last infusion on the first cycle. […]

T1 sequence (Q14432 whole entry): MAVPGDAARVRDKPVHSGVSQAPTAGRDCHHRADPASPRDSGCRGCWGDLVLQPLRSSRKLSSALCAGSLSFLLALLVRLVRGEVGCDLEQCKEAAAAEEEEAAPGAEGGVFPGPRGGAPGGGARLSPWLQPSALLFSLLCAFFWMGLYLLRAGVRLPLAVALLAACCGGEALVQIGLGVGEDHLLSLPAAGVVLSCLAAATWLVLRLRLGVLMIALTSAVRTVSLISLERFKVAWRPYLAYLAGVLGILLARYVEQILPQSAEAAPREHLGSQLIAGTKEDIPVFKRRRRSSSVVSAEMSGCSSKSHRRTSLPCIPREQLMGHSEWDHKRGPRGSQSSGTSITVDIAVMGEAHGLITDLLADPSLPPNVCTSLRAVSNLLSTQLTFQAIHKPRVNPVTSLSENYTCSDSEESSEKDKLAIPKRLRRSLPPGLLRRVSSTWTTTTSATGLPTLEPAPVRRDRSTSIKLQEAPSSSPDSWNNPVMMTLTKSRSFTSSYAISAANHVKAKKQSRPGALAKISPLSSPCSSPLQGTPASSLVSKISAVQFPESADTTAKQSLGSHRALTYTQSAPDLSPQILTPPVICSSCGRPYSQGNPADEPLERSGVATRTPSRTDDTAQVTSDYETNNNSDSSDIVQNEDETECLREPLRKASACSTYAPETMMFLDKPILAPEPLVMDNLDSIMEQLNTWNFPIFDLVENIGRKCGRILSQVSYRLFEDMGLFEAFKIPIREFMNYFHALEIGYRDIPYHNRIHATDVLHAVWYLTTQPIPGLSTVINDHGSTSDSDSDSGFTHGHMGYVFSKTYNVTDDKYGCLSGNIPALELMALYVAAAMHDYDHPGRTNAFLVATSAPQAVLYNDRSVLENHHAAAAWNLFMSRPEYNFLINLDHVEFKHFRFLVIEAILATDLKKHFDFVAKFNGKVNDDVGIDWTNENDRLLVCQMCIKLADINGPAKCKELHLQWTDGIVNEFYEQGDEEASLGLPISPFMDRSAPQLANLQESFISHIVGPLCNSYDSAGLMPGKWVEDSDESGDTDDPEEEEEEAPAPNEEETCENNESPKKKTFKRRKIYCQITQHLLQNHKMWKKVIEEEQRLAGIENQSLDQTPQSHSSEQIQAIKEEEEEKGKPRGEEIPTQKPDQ

With `CC(C)(C)c1[nH]cnc1/C=c1\[nH]c(=O)/c(=C/c2ccccc2)[nH]c1=O` [Plinabulin, (3Z,6Z)-3-Benzylidene-6-{[5-(2-methyl-2-propanyl)-1H-imidazol-4-yl]methylene}-2,5-piperazinedione] the “% of inhibition” value (PDE3) was 7%, the “% of inhibition” value (PDE4; Plinabulin concentration 10 μm, n 2, source human U937 cells, [3H]cAMP+cAMP substrate, 25° C.) was 77% and the “inhibition activity against PDE4 compared with PDE3 and PDE5” value (PDE4; from Table 1, 10 μm) was “better inhibition activity against PDE4”. For the same compound, the “% of inhibition” value (PDE5) was 25%, the “steroid related adverse events versus patients receiving no plinabulin” value ([1]; 30 mg/m^2 of plinabulin, p=0.026) was “statistically more significant” and the “steroid (dexamethasone)-related adverse events, effect of plinabulin dose (FIG. 1)” value ([1]; plinabulin 20 and 30 mg/m^2 added to docetaxel) was “dose-dependent increase”.

— patent US20200129504A1, “COMPOSITIONS OF PLINABULIN AND USE THEREOF” (BeyondSpring Pharmaceuticals, Inc., priority 2017, published 2020)
